Results taken from patent US4481201A, “Pharmaceutical composition containing N,N^3 -di-(β-bromopropionyl)-N^1,N^2 -dispirotripiperazinium dichloride” (Vsesojuzny Nauchno-Issledovatelsky Khimoko-Farmasevtichesky …, priority 1981, dated 1984).

Legend:
Ienssen's sarcoma = assay: Growth of graft Ienssen sarcoma in rats; type: in vivo
From the text: (§1) The antitumor activity has been studied on white rats weighing 110-130 g, as well as on white noninbred and inbred mice weighing 17-21 g with ligated tumors. The treatment is started 5-7 days transplanting of solid tumors and the following day after the transplanting of leukotic strains. Use has been made of the following transplantable strains of the tumors:
(§2) (1) rats: Ienssen's sarcoma, sarcoma 45, sarcoma M-1, sarcoma 536;
(§3) The compounds of the general formula (I), wherein X represents Cl^- (compound 1), Br^- (compound 2) are well-soluble in an isotonic solution of sodium chloride and they are administered intraperitoneally. The doses of the compounds have been calculated in mg per kg of the animal bodyweight.

sarcoma 45 = assay: Growth of graft sarcoma 45 in rats; type: in vivo; conditions: for Change in the animal body weight, test / It, % tumor growth suppression index: rats
From the text: as §1, §2, §3

sarcoma 536 = assay: Growth of graft sarcoma 536 in rats; type: in vivo
From the text: as §1, §2, §3

sarcoma M-1 = assay: Growth of graft sarcoma M-1 in rats; type: in vivo
From the text: as §1, §2, §3

sarcoma 180 = assay: Growth of graft sarcoma 180 in mice; type: in vivo, noninbred white mice; conditions: mice, at MTD (dose not given)
From the text: as §1
(§4) (2) noninbred white mice: sarcoma 180, sarcoma AK, sarcoma 37, carcinoma HK;
as §3

sarcoma 37 = assay: Growth of graft sarcoma 37 in mice; type: in vivo, noninbred white mice; conditions: mice, at MTD (dose not given)
From the text: as §1, §4, §3

sarcoma AK = assay: Growth of graft sarcoma AK in mice; type: in vivo, noninbred white mice; conditions: mice, at MTD (dose not given)
From the text: as §1, §4, §3

leukemia La = assay: Life span of mice with transplantable leukemia La; type: in vivo, inbred mice; conditions: leukemia La, MTD
From the text: as §1
(§5) (3) inbred mice: leukemia La, leukemia L1210 and P-388.
(§6) The activity of compounds relative to leukosis has been assessed by the life span (It) of treated animals as compared to the control ones. It --index of suppression of leukosis development is calculated by the formula: [formula]

[1] = Toxicity on single and repeated administration to mice; type: in vivo
Procedure: (3) acute toxicity of the compounds upon a single and repeated administration to white noninbred mice places into standard cages with 8 animals in each.
In the investigation of toxic properties of the compounds according to the present invention there has been determined the absolutely lethal dose (DL95), average lethal dose (DL50) and MTD. For compounds 1 and 2 there were determined DL95 and DL50 on healthy white mice with the body mass of 18-21 g at a single and repeated (once a day, daily for 7 days) intraperitoneal administration.

Solubility = type: physicochemical
Procedure: as §3
To a mixture of 3 g of N^1,N^2 -dispirotripiperazinium dichloride, 1.5 g of lithium hydroxide, 1 ml of water and 10 ml of ether a solution of 5.2 g of β-bromopropionic acid chlorid in 5 ml of ether is added under vigorous stirring and at a temperature of 5° to 10° C. The reaction mass is stirred for 2 hours at the temperature of 15° C. The residue is filtered off, dissolved in 10 ml of water; the resulting aqueous solution is poured in 100 ml of methanol.

transplantable leukemia = assay: Activity relative to leukoses of inbred mice (overall); type: in vivo
From the text: (2) activity of the compounds relative to leukoses of inbred mice;
as §1, §5, §6

[2] = rats, 21 mg/kg intraperitoneally, 44 injections
[3] = rats, 39 mg/kg intraperitoneally, 5 injections
[4] = rats, 86 mg/kg intraperitoneally, 4 injections
[5] = rats, 88 mg/kg intraperitoneally, 5 injections
[6] = rats, 2,1 mg/kg intraperitoneally, 7 injections
[7] = rats, 4,2 mg/kg intraperitoneally, 7 injections
[8] = 44 mg/kg intraperitoneally, 7 injections
[9] = 83 mg/kg intraperitoneally, 7 injections
[10] = rats, 81 mg/kg intraperitoneally, 6 injections
[11] = mice, single intraperitoneal administration

O=C(CCBr)N1CC[N+]2(CC1)CC[N+]1(CCN(C(=O)CCBr)CC1)CC2 [Compound 2]
Ch/T chemotherapeutical index (ratio of MTD to minimum effective dose) (Ienssen's sarcoma; Ienssen sarcoma): 50
Maximum tolerable dose (MTD) (Ienssen's sarcoma; rats with Ienssen sarcoma, repeated intraperitoneal administration): 149 mg/kg
Change in the animal body weight, test (Ienssen's sarcoma; rats, 8 mg/kg intraperitoneally, 7 injections): +21 g
Change in the animal body weight, test (Ienssen's sarcoma; [2]): +34 g
It, % tumor growth suppression index (Ienssen's sarcoma; [2]): +90%
Change in the animal body weight, test (Ienssen's sarcoma; [3]): +14 g
It, % tumor growth suppression index (Ienssen's sarcoma; [3]): +99%
Change in the animal body weight, test (Ienssen's sarcoma; [4]): +1 g
It, % tumor growth suppression index (Ienssen's sarcoma; [4]): +99%
Change in the animal body weight, test (Ienssen's sarcoma; [5]): +1 g
It, % tumor growth suppression index (Ienssen's sarcoma; [5]): +99%
Change in the animal body weight, test (Ienssen's sarcoma; rats, 149 mg/kg intraperitoneally (MTD), 5 injections): -30 g
Change in the animal body weight, test (Ienssen's sarcoma; [6]): +5 g
It, % tumor growth suppression index (Ienssen's sarcoma; [6]): +46%
Change in the animal body weight, test (Ienssen's sarcoma; [7]): +6 g
It, % tumor growth suppression index (Ienssen's sarcoma; [7]): +35%
Maximum tolerable dose (MTD) (sarcoma 45; rats with sarcoma 45, repeated intraperitoneal administration): 95 mg/kg
Change in the animal body weight, test (sarcoma 45; 20 mg/kg intraperitoneally, 7 injections): -12 g
It, % tumor growth suppression index (sarcoma 45; 20 mg/kg intraperitoneally, 7 injections, 20 mg/kg): +66%
Change in the animal body weight, test (sarcoma 45; [8]): +4 g
It, % tumor growth suppression index (sarcoma 45; [8]): +96%
Change in the animal body weight, test (sarcoma 45; [9]): +6 g
It, % tumor growth suppression index (sarcoma 45; [9]): +96%
Change in the animal body weight, test (sarcoma 45; 95 mg/kg intraperitoneally (MTD), 6 injections): -6 g
Maximum tolerable dose (MTD) (sarcoma 536; rats with sarcoma 536, repeated intraperitoneal administration): 133 mg/kg
Change in the animal body weight, test (sarcoma 536; [10]): -15 g
It, % tumor growth suppression index (sarcoma 536; [10]): +52%
Change in the animal body weight, test (sarcoma 536; rats, 133 mg/kg intraperitoneally (MTD), 5 injections): -14 g
Maximum tolerable dose (MTD) (sarcoma M-1; rats with sarcoma M-1, repeated intraperitoneal administration): 95 mg/kg
Change in the animal body weight, test (sarcoma M-1; rats, 95 mg/kg intraperitoneally (MTD), 6 injections): +8 g
suppression of sarcoma 180 (sarcoma 180): 52%
suppression of sarcoma 37 (sarcoma 37): 60%
suppression of sarcoma AK (sarcoma AK): 81%
extension of life span of treated mice as compared to the control (leukemia La): 2 times
DL50 (average lethal dose) ([1]; mice, repeated intraperitoneal administration (once a day, daily for 7 days)): 150 mg/kg
DL50 (average lethal dose) [1, 11]: 1,150 mg/kg
DL95 (absolutely lethal dose) [1, 11]: 1,250 mg/kg
MTD ([1]; repeated intraperitoneal administration): 125 mg/kg
solubility in an isotonic solution of sodium chloride (Solubility): well-soluble
effect on transplantable leukemia in mice (transplantable leukemia): clearly pronounced antileukotic effect
